Measurements: EP1053750A1, “Use of proteasome-inhibitor for the induction of programmed cell death (apoptosis)” (Max-Planck-Gesellschaft zur Förderung der Wissenschaften …, priority 1999, dated 2000)
Peptide text beside a SMILES is read from it. * marks the point of attachment. Cbz = O=C(OCc1ccccc1)*; OtBu = CC(C)(C)O*

Tests used:
BAE cells = assay: Viability assay (MIT assay), BAE cells; format: cell-based, bovine; conditions: for EC50: Bos taurus
MDCK epithelial cells = assay: Viability assay (MIT assay), MDCK cells; format: cell-based, canine; conditions: for EC50: Canis lupus familiaris, 48 h, 48 h incubation
Protocol: The indicated values are expressed as the percentage of absorbance at 570 nm relative to the absorbance obtained by DMSO treated (control) cells.
Madin Darby canine kidney epithelial cells (MDCK; ATCC CLL-34) were grown in Dulbecco's Modified Eagle's Medium (DMEM) containing 10% FCS, penicillin and streptomycin.
Briefly, the cells were plated either at 3000 cells/well (low density) or 30000 cells/well (high density) onto 96 well plates and grown over night. […] The formazan cystals generated were subsequently dissolved in DMSO and absorption measured at 570 - 650 nm.

[1] = test system: subconfluent primary BAE cells; assay: Apoptotic morphology (phase contrast, Hoechst 33342), BAE cells; format: cell-based, bovine; conditions: subconfluent BAE cells; 50 µM for 15 - 24 h, or 10 µM after 48 hours
HUE cells = assay: DNA fragmentation assay; format: cell-based, human; conditions: 10 µM PSI for 18 hours, agarose gel
Protocol: • a. Analysis of PSI-induced DNA fragmentation by agarose gel electrophoresis. […] Neither caspase inhibitor (Ac-YVAD-CHO 250 µM, lane 4; Ac-DEVD-CHO 250 µM, lane 5) nor DMSO (lane 6) induced the characteristic pattern of DNA fragmentation. M1 and M2: DNA size markers (kb). • b. Immunoblot analysis of HUE cell lysates after incubation with PSI. […] Equal loading was controlled by using an antibody directed against GAPDH enzyme.
HUE cells which had been plated at 20000 cells/cm^2 24 hours before the assay, were treated with 250 µM of the caspase inhibitors Ac-YVAD-CHO or Ac-DEVO-CHO (Peptide Institute, Osaka, Japan) or the equivalent volume of dimethylsulfoxide (DMSO) for 1 h prior to additon of the proteasomal inhibitors. Incubation of the cells was continued for a further 18 h and the extent of DNA fragmentation was analyzed as previously described with some minor modifications (Hockenberry et al., Nature 348 (1990), 334 - 336). Briefly, both the floating cells and the adherent cells which were detached by trypsinization, were lysed in a solution containing 0.5% Triton X100, 10 mM EDTA and 10 mM Tris-HCL pH 7.5 for 30 min on ice. To separate the intact chromatin from the oligonucleosomal fragments, the lysate was centrifuged at 13000 g for 10 min at 4°C and the resulting supernatant was sequentially extracted with phenol followed by phenol/chloroform/iso-amylalcohol (25:24:1; v/v/v). Low molecular weight DNA was precipitated by the addition of 0.5 vol 7 M ammonium acetate and 2.5 vol ice-cold ethanol. The precipitate was washed in 75% ethanol, dissolved in TE-buffer, containing RNase A (20 µg/ml; Boehringer Mannheim), incubated for 30 min at 37°C and subjected to electrophoresis on 1.5% agarose gels.

CC[C@H](C)[C@H](NC(=O)OCc1ccccc1)C(=O)N[C@@H](CCC(=O)OC(C)(C)C)C(=O)N[C@@H](C)C(=O)N[C@H](C=O)CC(C)C [PSI, carbobenzoxy-L-isoleucyl-y-t-butyl-L-glutamyl-L-alanyl-L-leucinal] (Cbz-IE(OtBu)AL-aldehyde)
x difference (BAE cells; BAE, EC50 confluent versus subconfluent, 2880 min): 340 fold
EC50 (BAE cells; 96 h, BAE cells seeded at high density, grown to confluency for 4 days): 8.15 µM
EC50 (BAE cells; BAE, con (grown to confluency for 4 days), 48 h incubation): 8.15 µM
EC50 (BAE cells; BAE, sub (low density, subconfluent), 48 h incubation, viability reduced to 50% of DMSO control): 0.024 µM
EC50 (MDCK epithelial cells; con (confluent)): 3.1 µM
EC50 (MDCK epithelial cells; sub (low density, subconfluent)): 0.016 µM
x difference (MDCK epithelial cells; EC50 confluent versus subconfluent, 2880 min): 194 fold
morphological changes associated with programmed cell death [1]: cytoplasmic shrinkage and bleb formation as well as extensive nuclear condensation and fragmentation
DNA fragmentation (DNA ladder formation) (HUE cells): induced DNA ladder formation
